Tests used:
[1] = Essential oils solubility; format: physicochemical; settings: 7 wt % solubilizer in water, room temperature, after 5 hours
Description: 13 wt % solution of alkyl polyglucoside in distilled water was prepared and separately mixed with lemon oil, lavender oil, tea tree oil and patchouli oil at a ratio of 1:7 (w/w), and then the mixtures were added dropwise under stirring to water to a final concentration of 1 wt % essential oil and 7 wt % alkyl polyglucoside. […] The mixtures were then left at room temperature for 5 hours and observed for phase separation. Lauryl glucoside was used as a surfactant control with both lemon oil and lavender oil.

[2] = Foam measurement (Dynamic Foam Analyser, Kruss); format: physicochemical; settings: 50 ml of 1.5 wt % solution, stirred at 3,000 rpm for 2 minutes
Description: Foaming was evaluated using a Dynamic Foam Analyser from Kruss. A volume of 50 ml of 1.5 wt % alkyl polyglucoside solution was added to the cylinder. […] PEG-80 sorbitan laurate and cocamidopropyl betaine were used as surfactant controls.

Foam height [2] | Substance | Essential oils solubility: lavender oil mixture appearance / phase separation ([1]; 1 wt % lavender oil) | Essential oils solubility: lemon oil mixture appearance / phase separation ([1]; 1 wt % lemon oil)
 | lauryl glucoside | white and cloudy, and had phase separated | white and cloudy, and had phase separated
78 mm | cocamidopropyl betaine |  | 

— patent US20230227878A1, “PROCESS FOR PREPARING SURFACTANT” (Enza Biotech AB, priority 2020, published 2023)
